We go through 2 compounds from patent US10190168B2, “Method for predicting a treatment response to a CRHR1 antagonist and/or a V1B antagonist in a patient with depressive and/or anxiety symptoms” (MAX-PLANCK-GESELLSCHAFT ZUR FÖRDERUNG DER WISSENSCHAFTEN …, priority 2013, dated 2019).

Test [1] deals with Cor26 CRH mice. Description: REMS levels (EEG/EMG sleep recording) in CRH-overexpressing Cor26 CRH mice. Conditions: 50 mg/kg/d via drinking water.
Description: (§1) Experiments were conducted with two different mouse lines of excessive central CRH secretion and their respective control littermates (CL). Mice of the CRH-COE^CNS line are characterised by CRH-overexpression within the whole CNS, whereas mice of the Cor26 CRH line display a CRH-overexpression specific to CRH-ergic neurons of the CNS. Three different CRHR1 antagonists were tested. […] In all cases, animals were left to recover from EEG/EMG-electrode implantation for two weeks, after which two days of baseline recording were initiated. Treatment with CRH-R1 antagonist or respective vehicle control commenced thereafter for five consecutive days. Antagonists were applied through the drinking water at a daily dose of 50 mg/kg body weight. EEG and EMG recordings were manually scored as wake, non-REMS (NREMS), and REMS in four second epochs by an experienced evaluator.
Test [2] relates to control littermates (CL) of Cor26 CRH mice. Description: REMS levels (EEG/EMG sleep recording) in control littermates of the Cor26 CRH line. The following applies: 50 mg/kg/d via drinking water.
Description: as §1
The subject of test [3] is mice overexpressing CRH in the forebrain. Conditions: Kimura et al., Mol. Psychiatry 2010; cited from earlier work.
For test [4], the system named is CRH-COE^CNS mice. Description: REMS activity (EEG/EMG sleep recording) in CRH-overexpressing CRH-COE^CNS mice. The following applies: 50 mg/kg/d via drinking water; for REMS activity: treatment days vs baseline, effect beginning with treatment day two.
Description: as §1
In test [5] the test system is control littermates (CL) of CRH-COE^CNS mice. Briefly: REMS activity (EEG/EMG sleep recording) in control littermates of the CRH-COE^CNS line. Conditions: 50 mg/kg/d via drinking water.
Description: as §1

Regarding `CCC(CC)Oc1cc(C)nc(Oc2c(C)cc(C)cc2C)c1C` [CP-316,311], the REMS levels entry was “apparently seemed weak” in test [1] (50 mg/kg/day); “suppressed” in test [1] (listed as CP-316311, 50 mg/kg/day); “no significant effect” in test [2]. Also, the “REMS levels, area under the curve (AUC) within the light period” value in test [1] (baseline vs treatment day three, P=0.006) was “significant decrease”.
Consider `COCC(COC)Nc1nc(C)nc2c(-c3ccc(Cl)cc3Cl)c(C)nn12` [DMP-696], for which, in test [3], the REM enhancement result is given as “could reverse the REM enhancement”. Also, in test [4], the “REMS suppression relative to baseline REMS-levels of CL” value was “never exceeded baseline REMS-levels of CL”. Further, the “treatment day of strongest suppression of REMS activity” value in test [4] is reported as “treatment day three”. Besides, the REMS activity entry in test [4] (50 mg/kg/day) is “significant decrease in REMS activity”; in test [4] (listed as DMP696, 50 mg/kg/day), “suppressed”; in test [5], “only a mild suppression of REMS”.
